According to PubChem BioAssay (NCI):
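Cells were grown in 96-well plates and exposed to each compound for 48 hours at five concentrations; endpoints were interpolated linearly between bracketing concentrations, or set to the highest concentration if not reached. Definition used: TGI = concentration required for complete inhibition of growth.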

Key:
Test in all cases: DTP human tumour cell line panel, 48 h
[1] = tested on: IGROV1 ovarian
[2] = tested on: 786-0 renal
[3] = tested on: NCI/ADR-RES ovarian
[4] = tested on: CAKI-1 renal
[5] = tested on: NCI-H460 lung
[6] = tested on: UACC-62 melanoma
[7] = tested on: RXF 393 renal
[8] = tested on: NCI-H23 lung
[9] = tested on: HCT-15 colon
[10] = tested on: M14 melanoma
[11] = tested on: SW-620 colon

Measured: TGI

C1=Cc2cccc3occ(c23)C=C1
88.3 µM: [7]
> 100 µM: all other assays above

COc1cccc(CCn2c(N)c(C#N)c3ccc([N+](=O)[O-])cc3c2=O)c1
> 31.6 µM: [1] | [6] | [9] | [10]
> 100 µM: [11]
not listed: [7]
> 46.4 µM: all other assays above

N[C@H]1CCN(c2c(F)cc3c(=O)c(C(=O)O)cn4c3c2Oc2c-4ccc3c2ccc2ccccc23)C1
16.6 µM: [7]
> 48.8 µM: [1]
2.42 µM: [5]
> 71.7 µM: [8]
> 25.5 µM: [4]
> 36.6 µM: [2]
> 51.3 µM: [9]
> 100 µM: all other assays above

Cn1c(N)c(/C=C/C(=O)Oc2ccccc2)c(=O)n(C)c1=O
63.8 µM: [4]
> 100 µM: all other assays above

C[C@H]1S[C@H](c2c(F)cccc2F)n2c1nc1ccccc12
> 100 µM: all assays above

CCOC(=O)c1ccc(N(CCOS(=O)(=O)c2ccc(C)cc2)CCOS(=O)(=O)c2ccc(C)cc2)cc1
not listed: [2]
> 100 µM: all other assays above

CC(=O)OC(C)c1cc2c(s1)C(=O)c1ccsc1C2=O (centres undefined)
0.196 µM: [8]
0.496 µM: [7]
0.978 µM: [2]
0.272 µM: [9]
0.835 µM: [11]
1.55 µM: [1]
2.39 µM: [4]
0.604 µM: [10]
0.992 µM: [3]
0.23 µM: [6]

CC(=O)OCC1=CC2CCC3C(C)(CCC[C@]3(C)COC(C)=O)C23CC[C@H]1C3 (some centres undefined)
93 µM: [7]
not listed: [3]
> 100 µM: all other assays above

N#Cc1c(N)c2c(c(-c3ccccc3)c1-c1ccccc1)C(=O)N(O)C2=O
44.3 µM: [7]
75.2 µM: [1]
not listed: [8]
> 100 µM: all other assays above

CCOc1nc2sc3c(c2c(=O)n1CCSSCCn1c(OCC)nc2sc4c(c2c1=O)CCCC4)CCCC3
not listed: [7]
> 100 µM: all other assays above

Oc1ccc(/C=N/c2nccs2)c(O)c1
not listed: [11]
> 100 µM: all other assays above

O=c1[nH]c(=O)n(C2CC(O)C(COP(=O)(OCC(Cl)(Cl)Cl)OCC(Cl)(Cl)Cl)O2)cc1F (centres undefined)
not listed: [7]
> 100 µM: all other assays above

COC1(C)CNCC(C)(C)NC(=O)C(C)(OC)CNCC(C)(C)NC1=O (centres undefined)
not listed: [3]
> 100 µM: all other assays above

Cc1ccc2c(c1)CC1(C2)Cc2ccc(C)cc2C1=O (centres undefined)
63 µM: [2]
55.5 µM: [5]
87.2 µM: [4]
54.4 µM: [7]
79.5 µM: [9]
> 100 µM: [1] | [8] | [11]
71.6 µM: [10]
62.6 µM: [3]

CCN1C/C(=C\c2ccc(Cl)cc2)c2[nH]c(=O)c(C#N)c(-c3ccc(Cl)cc3)c2C1
not listed: [4]
> 100 µM: all other assays above

CC12CCC(=O)[C@@]1(C)CCCC2O (some centres undefined)
not listed: [7]
> 100 µM: all other assays above

CC1N=C(c2ccccc2)OC1=O (centres undefined)
not listed: [7]
> 100 µM: all other assays above

CC(=O)c1cccc(Nc2nc3ccccc3c3[nH]c4ccccc4c23)c1
5.71 µM: [6]
11.7 µM: [2]
23.4 µM: [4]
22.3 µM: [1]
4.36 µM: [5]
not listed: [7]
> 100 µM: all other assays above

CC(=O)OCC1OC(n2c(O)c(N=NC(N)=S)c3ccc([N+](=O)[O-])cc32)C(OC(C)=O)C1OC(C)=O (centres undefined)
45.9 µM: [7]
27.6 µM: [6]
42.1 µM: [8]
44.4 µM: [2]
66.2 µM: [5]
not listed: [3]
> 100 µM: all other assays above

COc1cc2c(cc1O)C(=O)O[C@@H]1CC=C3CCN(C)[C@H]3[C@H]21
not listed: [5]
> 25 µM: all other assays above

CCOC(=O)c1nc2cc(F)cc(F)c2[nH]c1=O
not listed: [7]
> 100 µM: all other assays above
